Publication PMC6979384, “Characterization of the plant homeodomain (PHD) reader family for their histone tail interactions” (Epigenetics & Chromatin, 2020)

Columns and labels:
Experiment in all cases: Histone peptide microarray
Format in all cases: binding, human
Settings in all cases: histone peptide array
[1] = system: PHF23
Procedure, shortened: (§1)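 Using an optimized microarray protocol, purified GST-tagged PHD fingers were incubated at 0.5 μM on 293 histone peptides with single or multiple modifications, and array signal was recorded as the average of 4 replicates.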

[2] = system: BPTF (PB)
Procedure, shortened: as §1

[3] = system: PHF21A
Procedure, shortened: as §1

[4] = system: CHD4 (PPCC)
Procedure, shortened: as §1

[5] = system: KDM5B (1)
Procedure, shortened: as §1

[6] = system: AIRE (PP)
Procedure, shortened: as §1

[7] = system: ING3
Procedure, shortened: as §1

[8] = system: PHF8
Procedure, shortened: as §1

[9] = system: ING2
Procedure, shortened: as §1

[10] = system: KDM5A (1)
Procedure, shortened: as §1

[11] = system: TAF3
Procedure, shortened: as §1

[12] = system: KDM5B (3)
Procedure, shortened: as §1

[13] = system: BAZ2B
Procedure, shortened: as §1

[14] = system: KDM4C (TTP)
Procedure, shortened: as §1

[15] = system: SP140L
Procedure, shortened: as §1

[16] = system: ING1
Procedure, shortened: as §1

[17] = system: KDM5A (3)
Procedure, shortened: as §1

[18] = system: TRIM66 (PB)
Procedure, shortened: as §1

[19] = system: CHD5 (PPCC)
Procedure, shortened: as §1

[20] = system: DIDO1
Procedure, shortened: as §1

[21] = system: CHD5 (PCC)
Procedure, shortened: as §1

[22] = system: RAG2
Procedure, shortened: as §1

[23] = system: MORC3 (CW)
Procedure, shortened: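 GST-PHD reader, 0.5 μM, probed on 293-peptide histone array (single/combinatorial PTMs); optimized array protocol; signal = mean ± SD, n = 4.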

[24] = system: ING4
Procedure, shortened: as §1

[25] = system: ING5
Procedure, shortened: as §1

[26] = system: DPF2 (PPC2W2)
Procedure, shortened: as §1

[27] = system: PHRF1 (RP)
Procedure, shortened: as §1

[28] = system: PHF13
Procedure, shortened: as §1

[29] = system: KDM7A
Procedure, shortened: as §1

[30] = system: PHF2
Procedure, shortened: as §1

[31] = system: MLL5
Procedure, shortened: as §1

[32] = sheet "Array Heatmap", GST-tagged reader, total n = 4

H3T6p: H3 1-20 [Peptide H3T6p]
Array Heatmap signal, PHF23 [1, 32]: 0.6281
Array Heatmap signal, BPTF (PB) [2, 32]: 0.4149
Array Heatmap signal, PHF21A [3, 32]: 0.4969
Array Heatmap signal, CHD4 (PPCC) [4, 32]: 0.6596
Array Heatmap signal, KDM5B (1) [5, 32]: 0.7098
Array Heatmap signal, AIRE (PP) [6, 32]: 0.5235
Array Heatmap signal, ING3 [7, 32]: 0.5766
Array Heatmap signal, PHF8 [8, 32]: 0.4328
Array Heatmap signal, ING2 [9, 32]: 0.6272
Array Heatmap signal, KDM5A (1) [10, 32]: 0.5432
Array Heatmap signal, TAF3 [11, 32]: 0.311
Array Heatmap signal, KDM5B (3) [12, 32]: 0.5406
Array Heatmap signal, BAZ2B [13, 32]: 0.5538
Array Heatmap signal, KDM4C (TTP) [14, 32]: 0.5715
Array Heatmap signal, SP140L [15, 32]: 0.3962
Array Heatmap signal, ING1 [16, 32]: 0.6423
Array Heatmap signal, KDM5A (3) [17, 32]: 0.5721
Array Heatmap signal, TRIM66 (PB) [18, 32]: 0.7122
Array Heatmap signal, CHD5 (PPCC) [19, 32]: 0.6595
Array Heatmap signal, DIDO1 [20, 32]: 0.87
Array Heatmap signal, CHD5 (PCC) [21, 32]: 0.9074
Array Heatmap signal, RAG2 [22, 32]: 0.3038
Array Heatmap signal, MORC3 (CW) [23, 32]: 0.5106
Array Heatmap signal, ING4 [24, 32]: 0.5347
Array Heatmap signal, ING5 [25, 32]: 0.4298
Array Heatmap signal, DPF2 (PPC2W2) [26, 32]: 0.8292
Array Heatmap signal, PHRF1 (RP) [27, 32]: 0.6983
Array Heatmap signal, PHF13 [28, 32]: 0.7024
Array Heatmap signal, KDM7A [29, 32]: 0.3941
Array Heatmap signal, PHF2 [30, 32]: 0.6372
Array Heatmap signal, MLL5 [31, 32]: 0.6202

H4 (1-23): H4 1-23
Array Heatmap signal, PHF23 ([1]; GST-tagged PHF23, arrays performed twice, n of 4): 0.53
Array Heatmap signal, BPTF (PB) ([2]; GST-tagged BPTF (PB = PHD + Bromodomain), arrays performed twice, n of 4): 0.3416
Array Heatmap signal, PHF21A ([3]; GST-tagged PHF21A, arrays performed twice, n of 4): 0.4603
Array Heatmap signal, CHD4 (PPCC) ([4]; GST-tagged CHD4 (PPCC = Dual PHD + Dual Chromodomain), arrays performed twice, n of 4): 0.5522
Array Heatmap signal, KDM5B (1) ([5]; GST-tagged KDM5B (1), arrays performed twice, n of 4): 0.7073
Array Heatmap signal, AIRE (PP) ([6]; GST-tagged AIRE (PP), arrays performed twice, n of 4): 0.4854
Array Heatmap signal, ING3 ([7]; GST-tagged ING3, arrays performed twice, n of 4): 0.4725
Array Heatmap signal, PHF8 ([8]; GST-tagged PHF8, arrays performed twice, n of 4): 0.3699
Array Heatmap signal, ING2 ([9]; GST-tagged ING2, arrays performed twice, n of 4): 0.5875
Array Heatmap signal, KDM5A (1) ([10]; GST-tagged KDM5A (1), arrays performed twice, n of 4): 0.4868
Array Heatmap signal, TAF3 ([11]; GST-tagged TAF3, arrays performed twice, n of 4): 0.3843
Array Heatmap signal, KDM5B (3) ([12]; GST-tagged KDM5B (3), arrays performed twice, n of 4): 0.4835
Array Heatmap signal, BAZ2B ([13]; GST-tagged BAZ2B, arrays performed twice, n of 4): 0.467
Array Heatmap signal, KDM4C (TTP) ([14]; GST-tagged KDM4C (TTP = Tandem Tudor domain + PHD), arrays performed twice, n of 4): 0.5139
Array Heatmap signal, SP140L ([15]; GST-tagged SP140L, arrays performed twice, n of 4): 0.3814
Array Heatmap signal, ING1 ([16]; GST-tagged ING1, arrays performed twice, n of 4): 0.4959
Array Heatmap signal, KDM5A (3) ([17]; GST-tagged KDM5A (3), arrays performed twice, n of 4): 0.4566
Array Heatmap signal, TRIM66 (PB) ([18]; GST-tagged TRIM66 (PB = PHD + Bromodomain), arrays performed twice, n of 4): 0.7288
Array Heatmap signal, CHD5 (PPCC) ([19]; GST-tagged CHD5 (PPCC = Dual PHD + Dual Chromodomain), arrays performed twice, n of 4): 0.5714
Array Heatmap signal, DIDO1 ([20]; GST-tagged DIDO1, arrays performed twice, n of 4): 0.6189
Array Heatmap signal, CHD5 (PCC) ([21]; GST-tagged CHD5 (PCC = PHD + Dual Chromodomain), arrays performed twice, n of 4): 0.772
Array Heatmap signal, RAG2 ([22]; GST-tagged RAG2, arrays performed twice, n of 4): 0.2838
Array Heatmap signal, MORC3 (CW) ([23]; GST-tagged MORC3 (CW = CW-type Zn-finger), arrays performed twice, n of 4): 0.3892
Array Heatmap signal, ING4 ([24]; GST-tagged ING4, arrays performed twice, n of 4): 0.4424
Array Heatmap signal, ING5 ([25]; GST-tagged ING5, arrays performed twice, n of 4): 0.3618
Array Heatmap signal, DPF2 (PPC2W2) ([26]; GST-tagged DPF2 (PPC2W2 = Dual PHD + C2W2-type Zn-finger), arrays performed twice, n of 4): 0.7352
Array Heatmap signal, PHRF1 (RP) ([27]; GST-tagged PHRF1 (RP), arrays performed twice, n of 4): 0.532
Array Heatmap signal, PHF13 ([28]; GST-tagged PHF13, arrays performed twice, n of 4): 0.625
Array Heatmap signal, KDM7A ([29]; GST-tagged KDM7A, arrays performed twice, n of 4): 0.4019
Array Heatmap signal, PHF2 ([30]; GST-tagged PHF2, arrays performed twice, n of 4): 0.4784
Array Heatmap signal, MLL5 ([31]; GST-tagged MLL5, arrays performed twice, n of 4): 0.5337
